21 compounds from ChEMBL document CHEMBL3817792, “Targeting the Motion of Shikimate Kinase: Development of Competitive Inhibitors that Stabilize an Inactive Open Conformation of the Enzyme” (J Med Chem, 2016) can be followed below.

Some results are limits rather than exact numbers.

A short description of assay [1]: Inhibition of Mycobacterium tuberculosis shikimate kinase using shikimic acid substrate by measuring oxidation of NADH to NAD by pyruvate kinase and lactate dehydrogenase coupled enzyme assay based Dixon plot analysis.
For the next assay, the target named is Shikimate kinase (Helicobacter pylori (strain ATCC 700392 / 26695) (Campylobacterpylori), UniProt P56073). Description: Inhibition of Helicobacter pylori shikimate kinase using shikimic acid substrate by measuring oxidation of NADH to NAD by pyruvate kinase and lactate dehydrogenase coupled enzyme assay based Dixon plot analysis.
The test system of another assay is Helicobacter pylori. Description: Antimicrobial activity against Helicobacter pylori clinical isolates assessed as inhibition of visible microbial growth incubated for 6 days by agar dilution method. Type of assay: functional. Particulars: 144 h. A general note: Agar dilution tests growth on a series of plates holding different concentrations.
The nature of assay [2]: Inhibition of Mycobacterium tuberculosis shikimate kinase.

The term Ki denotes the dissociation constant of the complex between target and ligand, obtained from inhibition or displacement. As usually defined, the MIC is the lowest concentration found to suppress growth.

Sequence of Shikimate kinase (P56073 whole entry): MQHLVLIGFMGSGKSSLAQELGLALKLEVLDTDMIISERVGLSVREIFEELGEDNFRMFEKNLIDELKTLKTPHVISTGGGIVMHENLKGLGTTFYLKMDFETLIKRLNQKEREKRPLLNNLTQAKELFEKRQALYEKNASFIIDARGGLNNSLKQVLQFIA

`O=C(O)C1=C[C@@H](O)[C@@H](O)[C@H](OCc2cccc(F)c2)C1`: the inhibition constant (Ki) in assay [1] came to 180 µM; at Shikimate kinase it was 1.28 µM.

As for `COC(=O)C1=C[C@@H](O)[C@@H](O)[C@H](n2cc(Cc3ccccc3)nn2)C1`, the MIC in the assay on Helicobacter pylori stood at 256 µg/mL.

Turning to `O=C(O)C1=C[C@@H](O)[C@@H](O)[C@H](n2cc(Cc3ccccc3)nn2)C1`, the Ki in assay [1] is above 2000 µM; on Shikimate kinase, 95 µM.

As to `O=C(O)C1=C[C@@H](O)[C@@H](O)[C@H](OCc2cccc([N+](=O)[O-])c2)C1`, the Ki in assay [1] came out at 10 µM; on Shikimate kinase, 0.46 µM.

As to `N[C@H]1C=C(C(=O)O)C[C@@H](OCc2ccc3ccccc3c2)[C@@H]1O`, the inhibitory constant (Ki) in assay [1] was above 2000 µM; at Shikimate kinase, above 800 µM.

On to `CC1(C)S[C@@H]2[C@H](NC(=O)[C@H](N)c3ccccc3)C(=O)N2[C@H]1C(=O)O` [AMPICILLIN], for which, in the assay with Helicobacter pylori, the MIC was 1 µg/mL.

Take `COC(=O)C1=C[C@H](N)[C@@H](O)[C@H](OCc2ccc3sccc3c2)C1`: the minimum inhibitory concentration (MIC) with Helicobacter pylori came to 256 µg/mL.

With `O=C(O)C1=C[C@@H](O)[C@@H](O)[C@H](n2cc(COc3ccccc3)nn2)C1`, the Ki in assay [1] is above 2000 µM; on Shikimate kinase, 67 µM.

As for `COC(=O)C1=C[C@@H](O)[C@@H](O)[C@H](n2cc(COc3ccccc3)nn2)C1`, the minimum inhibitory concentration (MIC) in the assay with Helicobacter pylori came to 128 µg/mL.

For the compound `Cc1ccc(CO[C@@H]2CC(C(=O)O)=C[C@@H](O)[C@H]2O)cc1`, the Ki in assay [1] amounted to 166 µM; on Shikimate kinase, 10.9 µM.

On to `COC(=O)C1=C[C@@H](O)[C@H](O)[C@H](OCc2cccc([N+](=O)[O-])c2)C1`, for which the MIC in the assay with Helicobacter pylori is 128 µg/mL.

Turning to `O=C(O)C1=C[C@@H](O)[C@@H](O)[C@H](OCc2ccccc2)C1`, the Ki in assay [1] was 360 µM; on Shikimate kinase it was 3 µM.

As to `COc1cccc(CO[C@@H]2CC(C(=O)O)=C[C@@H](O)[C@H]2O)c1`, the Ki in assay [1] was 135 µM; on Shikimate kinase, 1 µM.

`N[C@H]1C=C(C(=O)O)C[C@@H](O)[C@@H]1O` had a Ki in assay [2] of 65 µM.

For `N[C@H]1C=C(C(=O)O)C[C@@H](OCc2ccc3sccc3c2)[C@@H]1O`, the Ki in assay [1] was 415 µM; on Shikimate kinase, 535 µM.

Regarding `COC(=O)C1=C[C@@H](O)[C@@H](O)[C@H](OCc2ccc3sccc3c2)C1`, the MIC in the assay on Helicobacter pylori stood at 4 µg/mL.

In the case of `O=C(O)C1=C[C@@H](O)[C@@H](O)[C@H](OCc2ccc3sccc3c2)C1`, the Ki in assay [1] turned out to be 43 µM; on Shikimate kinase it was 0.56 µM.

For the compound `Cc1cccc(CO[C@@H]2CC(C(=O)O)=C[C@@H](O)[C@H]2O)c1`, the Ki in assay [1] is 109 µM; at Shikimate kinase, 2.1 µM.

Regarding `COC(=O)C1=C[C@H](N)[C@@H](O)[C@H](OCc2ccc3ccccc3c2)C1`, the MIC with Helicobacter pylori stood at 64 µg/mL.

In the case of `O=C(O)C1=C[C@@H](O)[C@@H](O)[C@H](OCc2c(F)c(F)c(F)c(F)c2F)C1`, the values for the inhibitory constant (Ki) (in assay [1]; on Shikimate kinase) were 710 µM and 41 µM, respectively.

As to `O=C(O)C1=C[C@@H](O)[C@@H](O)[C@H](OCc2ccc3ccccc3c2)C1`, the Ki in assay [1] was 22 µM; on Shikimate kinase, 1.8 µM.
